Measured values as given in ChEMBL document CHEMBL3085678, “3-Azatetracyclo[5.2.1.1(5,8).0(1,5)]undecane derivatives: from wild-type inhibitors of the M2 ion channel of influenza A virus to derivatives with potent activity against the V27A mutant” (J Med Chem, 2013).

Columns and labels:
Influenza B virus [1] = assay: Antiviral activity against Influenza B virus (B/Hong Kong/05/1972) harboring wild type M2 channel infected in MDCK cells assessed as reduction of cytopathic effect after 72 hrs by MTS assay; type: functional, cell-based; details: B/Hong Kong/05/1972, MDCK
Influenza B virus [2] = assay: Antiviral activity against Influenza B virus (B/Hong Kong/05/1972) harboring wild type M2 channel infected in MDCK cells assessed as reduction of cytopathic effect after 72 hrs by microsocopic analysis; type: functional, cell-based; details: B/Hong Kong/05/1972, MDCK
H3N2 subtype [3] = assay: Antiviral activity against Influenza A virus (A/Hong Kong/7/1987(H3N2)) harboring wild type M2 channel infected in MDCK cells assessed as reduction of cytopathic effect after 72 hrs by MTS assay; type: functional, organism-based
Influenza A virus [4] = assay: Antiviral activity against Influenza A virus (A/Puerto Rico/8/34(H1N1)) harboring M2 channel S31N and V27T mutant infected in MDCK cells assessed as reduction of cytopathic effect after 72 hrs by MTS assay; type: functional, organism-based, A/Puerto Rico/8/1934(H1N1)
Influenza A virus [5] = assay: Antiviral activity against Influenza A virus (A/Puerto Rico/8/34(H1N1)) harboring M2 channel S31N and V27T mutant infected in MDCK cells assessed as reduction of cytopathic effect after 72 hrs by microsocopic analysis; type: functional, organism-based, A/Puerto Rico/8/1934(H1N1)
H3N2 subtype [6] = assay: Antiviral activity against Influenza A virus (A/Hong Kong/7/1987(H3N2)) harboring wild type M2 channel infected in MDCK cells assessed as reduction of cytopathic effect after 72 hrs by microsocopic analysis; type: functional, organism-based
H3N2 subtype [7] = assay: Antiviral activity against Influenza A virus (A/Hong Kong/7/1987(H3N2)) harboring wild type M2 channel infected in MDCK cells assessed as concentration required to 2 log10 reduction of virus yield after 24 hrs by RT-PCR analysis; type: functional

SMILES | EC50 (Influenza B virus [1]) | EC50 (Influenza B virus [2]) | EC50 (H3N2 subtype [3]) | EC50 (Influenza A virus [4]) | EC50 (Influenza A virus [5]) | EC50 (H3N2 subtype [6]) | EC99 (H3N2 subtype [7])
C1CCC23CC45CNCC4(CC2(C1)C5)C3 | > 100 µM | > 100 µM | > 100 µM | > 100 µM | > 100 µM | > 100 µM | 
N=C(N)N1CC23CC4CC2(CC4C3)C1 | > 50 µM | > 50 µM | > 50 µM | > 50 µM | > 50 µM | > 50 µM | 
CCC12CC34CNCC3(C1)CC2(CC)C4 | > 100 µM | > 100 µM | > 100 µM | > 100 µM | > 100 µM | > 100 µM | 
CC12CC34CN(C(=N)N)CC3(C1)CC2(C)C4 | > 100 µM | > 100 µM | > 100 µM | > 100 µM | > 100 µM | > 100 µM | 
C1NCC23CC4CC12CC4C3 | > 100 µM | > 100 µM | 7.2 µM | > 100 µM | > 100 µM | 7.9 µM | 
CCC12CC34CN(C(=N)N)CC3(C1)CC2(CC)C4 | > 100 µM | > 100 µM | > 100 µM | > 100 µM | > 100 µM | > 100 µM | 
NC12CC3CC(CC(C3)C1)C2 [AMANTADINE] | > 500 µM | > 500 µM | 0.82 µM | 38 µM | 34 µM | 0.84 µM | 
CN1CC23CC4(C)CC2(C1)CC4(C)C3 | > 100 µM | > 100 µM | > 100 µM | > 100 µM | > 100 µM | > 100 µM | 
N=C(N)N1CC23CC45CCCCC4(C2)CC3(C1)C5 | > 100 µM | > 100 µM | > 100 µM | > 100 µM | > 100 µM | > 100 µM | 
CC12CC34CNCC3(C1)CC2(C)C4 | > 100 µM | > 100 µM | > 100 µM | > 100 µM | > 100 µM | 1.6 µM | 
CN1CC23CC4CC2(CC4C3)C1 | > 100 µM | > 100 µM | > 100 µM | > 100 µM | > 100 µM | > 100 µM | 
CC(N)C12CC3CC(CC(C3)C1)C2 (stereo not drawn) [RIMANTADINE] | > 500 µM | > 500 µM | 0.12 µM | 4.3 µM | 18 µM | 0.62 µM | >4 µM
